One experiment deals with T-REx™ CHO cells. The experiment in a line: Yield of purified mutant GFP containing unnatural amino acid (pSWAN two-plasmid system). Format: cell-based, Chinese hamster. The following applies: pMpa 10 mM, pApa 10 mM, pBpa 1 mM, pAzpa 5 mM, pPpa 1 mM in media, anti-myc column purified. The source says: The pMpaRS gene was inserted directly after the non-regulated CMV promoter for efficient and continuous expression of pMpaRS. Another plasmid (pSWAN-GFP37TAG in FIG. 4B) containing both three tandem repeats of the BstRNACUA^Tyr gene and the GFP37TAG gene was also constructed. The gene encoding GFP37TAG was inserted after a Tet-regulated CMV promoter to minimize potential read-through of the nonsense amber codon caused by endogenous amber suppression in mammalian cells. These two plasmids were then assayed for their suppression efficiency. Because both plasmids contain three tandem repeats of the BstRNACUA^Tyr gene, varying the ratio of the two plasmids to increase the suppression level is not expected to change the total amount of the BstRNACUA^Tyr gene transfected into cells. Under optimized transfection conditions (0.5 μg of pSWAN-pMpaRS and 2.5 μg pSWAN-GFP37TAG per 2×10^6 cells), the suppression level is roughly two-fold higher than that using the three plasmids pUC18-3BstRNACUA^Tyr, pcDNA4-pMpaRS, and pcDNA4-GFP37TAG (the suppression level was determined by the number of fluorescent cells). Cells were grown for 1-2 days after induction and kept viable before harvesting. The yield of mutant GFP containing pMpa (GFP-pMpa) was also quantified. In the presence of 10 mM pMpa in the growth media, 1 μg of mutant GFP can be obtained from 2×10^7 adhesive T-REx™ CHO cells.
Transient transfection of T-REx™ CHO and 293 cells with the pSWAN-EcTyrRS variants and pSWAN-GFP37TAG (0.5 μg of pSWAN-EcTyrRS variant and 2.5 μg of pSWAN-GFP37TAG per 2×10^6 cells) all afforded roughly two-fold higher suppression levels than for the three plasmids pUC18-3BstRNACUA^Tyr, pcDNA4-EcTyrRS variant, and pcDNA4-GFP37TAG (with the exception of the pIpa specific variant). Mutant GFPs containing pApa, pBpa, pAzpa or pPpa were also expressed in T-REx™ CHO cells transfected with the pSWAN-EcTyrRS variants and pSWAN-GFP37TAG and grown in media containing the corresponding unnatural amino acid (pApa, 10 mM; pBpa, 1 mM; pAzpa, 5 mM; or pPpa, 1 mM) for 1-2 days, and purified using an anti-myc antibody column. The yields of the mutant proteins containing pApa and pAzpa were close to that for pMpa (˜1 μg per 2×10^7 cells), and the yields of mutant proteins containing pBpa and pPpa were somewhat lower (˜0.7 μg per 2×10^7 cells). Because the expression levels of EcTyrRS variants in T-REx™ CHO cells are similar, the lower yield of the mutant proteins containing pBpa and pPpa may be due to the low concentrations of unnatural amino acids in the media.
pSWAN-EcTyrRS variants and pSWAN-GFP37TAG were used to express mutant GFPs containing unnatural amino acids. T-REx™ CHO cells (Invitrogen™) were grown in 75 cm^2 tissue culture flasks (BD Biosciences) to 80-90% confluency and transfected with 2 μg of pSWAN-EcTyrRS and 10 μg pSWAN-GFP37TAG using […] FuGENE® 6. After overnight incubation, the media were changed to the fresh media containing the unnatural amino acid (pMpa, 10 mM; pApa, 10 mM; pBpa, 1 mM; pAzpa, 5 mM; and pPpa, 1 mM) and 1 μg/ml tetracycline. Cells were then grown for 1-2 days at 37° C. before harvesting, and then lysed with RIPA lysis buffer. The supernatant from the cell lysate was dialyzed against and equilibrated with PBS buffer before loading onto an anti-myc antibody agarose column (Sigma). The column was washed with 15 column volumes of PBS buffer and then eluted with 0.1 M ammonium hydroxide. The purified proteins were neutralized with 0.1 M acetic acid and analyzed by SDS-PAGE. […]

Another experiment relates to position 37 of GFP. Kind of experiment: Fidelity of unnatural amino acid incorporation by mass spectrometry (nano-RP LC/MS/MS, ESI TOF-MS). Conditions: for wild type peptide signals in tandem MS of mutant GFP sample: nano-RP LC/MS/MS of tryptic fragments, mutant GFP from T-REx CHO cells. The source says:
To further characterize GFP-pMpa, the mutant protein was expressed in T-REx™ CHO cells transiently transfected with both pSWAN-pMpaRS and pSWAN-GFP37TAG. The protein was purified using an anti-myc antibody agarose column and then separated by SDS-PAGE. The GFP-pMpa band from the SDS-PAGE gel was digested with trypsin and analyzed by nanoscale reversed-phase liquid chromatography/mass spectrometry/mass spectrometry (nano-RP LC/MS/MS). In parallel, wild type GFP was purified from cells transfected with pcDNA4-GFP and subjected to the same analysis.
Proteolysis of affinity purified proteins (performed for wild-type and pBpa samples) was carried out by overnight incubation of proteins at 37° C. with sequencing-grade modified trypsin (Promega) using a substrate/enzyme ratio of 10:1 (wt/wt) based on the estimated protein concentration in 100 mM triethylammonium bicarbonate buffer (pH 8.5). In-gel digestions (performed for pMpa, pAzpa, pApa, and pPpa samples) were performed according to a modified EMBL procedure (see the website for EMBL, Heidelberg, Germany, Bioanalytical Research Group). Briefly, gel slices were excised to approximately 1 mm×1 mm cubes, washed for 5 minutes with water, 15 minutes with acetonitrile, and dried in a vacuum centrifuge before being rehydrated at 0° C. for 30 minutes with 12.5 ng/μl of sequencing-grade modified trypsin in 50 mM triethylammonium bicarbonate buffer (pH 8.5). Excess buffer was removed and 20 μl of 50 mM triethylammonium bicarbonate buffer (pH 8.5) was added to the gel slices before incubating at 37° C. overnight. Peptides were extracted from the gel slices as described in the protocol.
Nano-RP LC/MS/MS was performed with an HPLC pump, autosampler (Agilent Technologies, Palo Alto, Calif.), and an LTQ Orbitrap hybrid mass spectrometer (ThermoElectron, San Jose, Calif.). Tryptic digests were loaded with a pressure bomb onto a 75 μm i.d. precolumn packed with 4 cm of 5-μm Monitor C18 particles (Column Engineering, Ontario, Calif.) at a flow rate of approximately 2 μl/min. The precolumn was then connected to the HPLC pump and after several minutes of washing with solvent A the analytical column with integrated emitter tip (360 μm O.D.×75 μm i.d; 10 cm of 5 μM C18, ˜5-μm tip) was connected in series. The chromatographic profile was from 100% solvent A (0.1% aqueous acetic acid) to 50% solvent B (0.1% acetic acid in acetonitrile) in 40 min; the flow rate through the analytical column was ca. 100 nl/min.
For data-dependent experiments, the mass spectrometer was programmed to first record a high-resolution Orbitrap scan then a full-scan ion trap spectrum (m/z 500-2,000). This was followed by 10 data-dependent MS/MS scans (relative collision energy=35%; 3-Da isolation window) triggered of the ion-trap scan and finally two targeted MS/MS scans. The first targeted MS/MS scan was set to isolate and fragment the doubly charged precursor ion of the predicted unnatural amino acid modified peptide
at m/z 752.3. The raw data were searched against the MSDB database using MASCOT (Matrixscience, London, UK) for protein identification and to find the scans containing the target peptides with the unnatural amino acids as variable modification. To estimate fidelity at Y*37 of GFP-pMpa, single ion chromatograms (doubly charged precursor ions at m/z 752.3 for the wt and 759.3 for pMpa) and selected ion chromatograms (y9, y11, and y12) were integrated using the Xcalibur software package (ThermoElectron, San Jose, Calif.).
Intact protein mass spectra were acquired on an automated LC/MS system (Waters, Milford, Mass.) consisting of a capillary LC with auto-sampler and a QTOF2 mass spectrometer. GFP-pMpa (0.1 mg/ml) was loaded onto a reversed-phase protein Captrap (Michrom Bioresources, Auburn, Calif.) for desalting with 0.1% acetic acid in water and eluted with 80% acetonitrile/0.1% acetic acid at 5 μl/min into the ESI source of the mass spectrometer. […]

In the case of `CC(=O)c1ccc(C[C@H](N)C(=O)O)cc1` [pApa, p-acetylphenylalanine], the “yield of mutant GFP containing the unnatural amino acid” value (“yield” for short) in the experiment with T-REx™ CHO cells is reported as approximately 1 μg per 2×10^7 cells. The “wild type peptide signals in tandem MS of mutant GFP sample” value in the experiment with position 37 of GFP was “No wild type signals could be detected”.
Taken in the same sequence, the figures for `N[C@@H](Cc1ccc(C(=O)c2ccccc2)cc1)C(=O)O` [pBpa, p-benzoylphenylalanine] were approximately 0.7 μg per 2×10^7 cells and “trace amount of the wild type peptide”.
For `COc1ccc(C[C@H](N)C(=O)O)cc1` [pMpa, p-methoxyphenylalanine], in the experiment with T-REx™ CHO cells, the “yield” value stood at 1 μg per 2×10^7 cells. Moreover, the “purity estimate from the three most abundant fragment ions (y9, y11, y12) in tandem MS” value in the experiment with position 37 of GFP (GFP-pMpa from T-REx CHO cells) is 99.93%. Besides, the “fidelity for incorporation (integration of single ion chromatograms of precursor ions)” value in the experiment with position 37 of GFP (GFP-pMpa from T-REx CHO cells, tryptic peptide […]*GK) is reported as more than 99.9%. Also, in the experiment with position 37 of GFP (anti-myc purified GFP-pMpa, charge-state deconvoluted spectrum), the “wild type GFP signals in intact protein ESI TOF-MS” value is “No wild type GFP signals”.
With `C#CCOc1ccc(C[C@H](N)C(=O)O)cc1` [pPpa, p-propargyloxyphenylalanine], the “yield” value in the experiment with T-REx™ CHO cells is approximately 0.7 μg per 2×10^7 cells. Also, the “wild type peptide signals in tandem MS of mutant GFP sample” value in the experiment with position 37 of GFP is “No wild type signals could be detected”.

(Values after US20080166766A1, “Genetic incorporation of unnatural amino acids into proteins in mammalian cells” (The Scripps Research Institute, priority 2006, published 2008).)
